The target of the assay is T1, T1R2/T1R3 taste receptor (Homo sapiens, UniProt Q7RTX0+Q8TE23).
T1 sequence (Q8TE23 20-839): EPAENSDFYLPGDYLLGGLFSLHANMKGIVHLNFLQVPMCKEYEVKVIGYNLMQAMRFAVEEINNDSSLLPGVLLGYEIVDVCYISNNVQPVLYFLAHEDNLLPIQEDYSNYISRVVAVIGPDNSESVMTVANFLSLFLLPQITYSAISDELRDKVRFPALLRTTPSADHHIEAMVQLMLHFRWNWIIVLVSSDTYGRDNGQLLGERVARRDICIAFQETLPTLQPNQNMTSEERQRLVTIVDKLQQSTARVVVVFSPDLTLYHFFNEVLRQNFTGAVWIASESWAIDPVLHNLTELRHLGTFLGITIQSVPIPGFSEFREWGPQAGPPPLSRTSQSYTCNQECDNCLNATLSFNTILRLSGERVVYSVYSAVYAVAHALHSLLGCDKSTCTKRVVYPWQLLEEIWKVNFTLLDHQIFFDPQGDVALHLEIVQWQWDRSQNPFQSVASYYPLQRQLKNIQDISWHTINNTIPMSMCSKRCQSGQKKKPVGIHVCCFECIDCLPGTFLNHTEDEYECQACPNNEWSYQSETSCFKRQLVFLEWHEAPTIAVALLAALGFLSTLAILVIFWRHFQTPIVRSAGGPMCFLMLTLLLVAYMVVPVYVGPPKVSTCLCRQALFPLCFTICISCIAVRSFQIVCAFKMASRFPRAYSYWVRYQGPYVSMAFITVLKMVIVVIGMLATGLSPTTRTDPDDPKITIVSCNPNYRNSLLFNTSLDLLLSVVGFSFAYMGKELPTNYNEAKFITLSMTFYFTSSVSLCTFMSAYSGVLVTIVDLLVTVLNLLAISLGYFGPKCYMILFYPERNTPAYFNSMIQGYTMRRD
T1 sequence (Q7RTX0 21-852): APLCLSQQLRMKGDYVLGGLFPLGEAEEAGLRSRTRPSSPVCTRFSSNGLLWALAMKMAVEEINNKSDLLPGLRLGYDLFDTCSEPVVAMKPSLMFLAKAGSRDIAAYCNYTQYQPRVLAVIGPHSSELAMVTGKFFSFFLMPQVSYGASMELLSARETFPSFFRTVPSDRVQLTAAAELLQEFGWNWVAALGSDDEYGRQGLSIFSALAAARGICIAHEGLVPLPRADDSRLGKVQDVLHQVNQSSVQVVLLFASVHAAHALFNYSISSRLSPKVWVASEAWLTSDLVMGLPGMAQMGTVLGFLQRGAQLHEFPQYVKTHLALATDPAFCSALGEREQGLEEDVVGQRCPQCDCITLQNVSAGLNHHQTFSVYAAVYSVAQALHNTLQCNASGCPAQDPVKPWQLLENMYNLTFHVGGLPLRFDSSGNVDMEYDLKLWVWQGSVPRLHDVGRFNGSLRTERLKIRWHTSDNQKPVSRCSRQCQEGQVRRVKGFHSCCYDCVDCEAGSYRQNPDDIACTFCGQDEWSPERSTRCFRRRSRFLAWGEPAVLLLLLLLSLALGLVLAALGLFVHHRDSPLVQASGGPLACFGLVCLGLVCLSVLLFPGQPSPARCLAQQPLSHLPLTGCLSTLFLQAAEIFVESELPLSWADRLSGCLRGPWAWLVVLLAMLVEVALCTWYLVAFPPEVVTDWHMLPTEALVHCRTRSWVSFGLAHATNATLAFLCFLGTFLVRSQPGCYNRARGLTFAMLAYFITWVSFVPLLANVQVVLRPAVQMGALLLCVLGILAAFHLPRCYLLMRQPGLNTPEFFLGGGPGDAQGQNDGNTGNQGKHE
Kind of assay: Receptor-based assay: sweetener EC50 enhancement ratio with and without test compound. It is filed as cell-based. Conditions: for Sucrose Enhancement EC50 Ratio: sweetener sucrose; for Sucralose Enhancement EC50 Ratio: sweetener sucralose. The method, then: Potencies (EC50 values) for the sweeteners sucrose, sucralose, and fructose were measured against the T1R2/T1R3 taste receptor. EC50 was determined using the sweetener alone and in the presence of 1 μM, 3 μM, 10 μM, or 50 μM of test compound. EC50 ratios were calculated by the ratio of potency with and without the test compound. An “A” value indicates an enhancement ratio of greater than 1 and less than 10. A “B” value indicates an enhancement ratio from 10 to 20. A “C” value indicates an enhancement ratio greater than 20.

Turning to `Cc1nc2cccc(O[C@H]3CC[C@@H](C)CC3)c2c(N)c1C(=O)O` [Compound 102], the “Sucrose Enhancement EC50 Ratio” value runs as follows: (1 μM test compound) “A (an enhancement ratio of greater than 1 and less than 10)”; (3 μM test compound) “A (an enhancement ratio of greater than 1 and less than 10)”; (10 μM test compound) “B (an enhancement ratio from 10 to 20)”.
With `Cc1nc2cccc(OC3CCC(C)(C)CC3)c2c(N)c1C(=O)O` [Compound 103], the “Sucrose Enhancement EC50 Ratio” value reads like this: (1 μM test compound) “C (an enhancement ratio greater than 20)”; (3 μM test compound) “C (an enhancement ratio greater than 20)”.
As to `Cc1nc2cccc(O[C@H]3CC[C@H](C(C)(C)C)CC3)c2c(N)c1C(=O)O` [Compound 104], the “Sucrose Enhancement EC50 Ratio” value (1 μM test compound) is “A (an enhancement ratio of greater than 1 and less than 10)”; the “Sucrose Enhancement EC50 Ratio” value (3 μM test compound) was “C (an enhancement ratio greater than 20)”.
With `CO[C@H]1CC[C@H](Oc2cccc3nc(C)c(C(=O)O)c(N)c23)CC1` [Compound 105], the “Sucrose Enhancement EC50 Ratio” value is “A (an enhancement ratio of greater than 1 and less than 10)” (1 μM test compound); “A (an enhancement ratio of greater than 1 and less than 10)” (3 μM test compound); “C (an enhancement ratio greater than 20)” (10 μM test compound).
Turning to `CO[C@H]1CC[C@@H](Oc2cccc3nc(C)c(C(=O)O)c(N)c23)CC1` [Compound 106], the “Sucrose Enhancement EC50 Ratio” value was “A (an enhancement ratio of greater than 1 and less than 10)” (1 μM test compound); “A (an enhancement ratio of greater than 1 and less than 10)” (3 μM test compound); “A (an enhancement ratio of greater than 1 and less than 10)” (10 μM test compound).
In the case of `Cc1nc2cccc(O[C@H]3CC[C@H](O)CC3)c2c(N)c1C(=O)O` [Compound 107], the “Sucrose Enhancement EC50 Ratio” value runs as follows: (1 μM test compound) “A (an enhancement ratio of greater than 1 and less than 10)”; (3 μM test compound) “A (an enhancement ratio of greater than 1 and less than 10)”; (10 μM test compound) “B (an enhancement ratio from 10 to 20)”.
Consider `Cc1nc2cccc(O[C@H]3CC[C@@H](O)CC3)c2c(N)c1C(=O)O` [Compound 108], for which the “Sucrose Enhancement EC50 Ratio” value is, setting by setting: (1 μM test compound) “A (an enhancement ratio of greater than 1 and less than 10)”; (3 μM test compound) “A (an enhancement ratio of greater than 1 and less than 10)”; (10 μM test compound) “A (an enhancement ratio of greater than 1 and less than 10)”.
In the case of `Cc1nc2cccc(O[C@H]3CC[C@H](CO)CC3)c2c(N)c1C(=O)O` [Compound 109], the “Sucrose Enhancement EC50 Ratio” value runs as follows: (1 μM test compound) “B (an enhancement ratio from 10 to 20)”; (3 μM test compound) “C (an enhancement ratio greater than 20)”; (10 μM test compound) “C (an enhancement ratio greater than 20)”.
As to `CCc1nc2cccc(OC3CCCCC3)c2c(N)c1C(=O)O` [Compound 200], the “Sucrose Enhancement EC50 Ratio” value was “A (an enhancement ratio of greater than 1 and less than 10)” (1 μM test compound); “A (an enhancement ratio of greater than 1 and less than 10)” (3 μM test compound); “A (an enhancement ratio of greater than 1 and less than 10)” (10 μM test compound).
On to `CCc1nc2cccc(O[C@H]3CC[C@@H](C)CC3)c2c(N)c1C(=O)O` [Compound 202], for which the “Sucrose Enhancement EC50 Ratio” value is, setting by setting: (1 μM test compound) “A (an enhancement ratio of greater than 1 and less than 10)”; (3 μM test compound) “A (an enhancement ratio of greater than 1 and less than 10)”; (10 μM test compound) “A (an enhancement ratio of greater than 1 and less than 10)”.
On to `CCc1nc2cccc(OC3CCC(C)(C)CC3)c2c(N)c1C(=O)O` [Compound 203], for which the “Sucrose Enhancement EC50 Ratio” value by setting is: (1 μM test compound) “A (an enhancement ratio of greater than 1 and less than 10)”; (3 μM test compound) “A (an enhancement ratio of greater than 1 and less than 10)”; (10 μM test compound) “B (an enhancement ratio from 10 to 20)”.
`CCc1nc2cccc(O[C@H]3CC[C@H](C(C)(C)C)CC3)c2c(N)c1C(=O)O` [Compound 204]: the “Sucrose Enhancement EC50 Ratio” value is “A (an enhancement ratio of greater than 1 and less than 10)” (1 μM test compound); “A (an enhancement ratio of greater than 1 and less than 10)” (3 μM test compound); “A (an enhancement ratio of greater than 1 and less than 10)” (10 μM test compound).
Turning to `CCc1nc2cccc(O[C@H]3CC[C@H](COC)CC3)c2c(N)c1C(=O)O` [Compound 205], the “Sucrose Enhancement EC50 Ratio” value was “A (an enhancement ratio of greater than 1 and less than 10)” (1 μM test compound); “B (an enhancement ratio from 10 to 20)” (3 μM test compound); “B (an enhancement ratio from 10 to 20)” (10 μM test compound). The “Sucralose Enhancement EC50 Ratio” value (10 μM test compound) is on record as “B (an enhancement ratio from 10 to 20)”.
Turning to `CCc1nc2cccc(O[C@H]3CC[C@H](CO)CC3)c2c(N)c1C(=O)O` [Compound 206], the “Sucrose Enhancement EC50 Ratio” value was “A (an enhancement ratio of greater than 1 and less than 10)” (1 μM test compound); “A (an enhancement ratio of greater than 1 and less than 10)” (3 μM test compound); “A (an enhancement ratio of greater than 1 and less than 10)” (10 μM test compound).
Regarding `CCCc1nc2cccc(O[C@H]3CC[C@H](C)CC3)c2c(N)c1C(=O)O` [Compound 207], the “Sucrose Enhancement EC50 Ratio” value was “A (an enhancement ratio of greater than 1 and less than 10)” (1 μM test compound); “A (an enhancement ratio of greater than 1 and less than 10)” (3 μM test compound); “A (an enhancement ratio of greater than 1 and less than 10)” (10 μM test compound).
As for `CCCc1nc2cccc(OC3CCC(C)(C)CC3)c2c(N)c1C(=O)O` [Compound 208], the “Sucrose Enhancement EC50 Ratio” value is “A (an enhancement ratio of greater than 1 and less than 10)” (1 μM test compound); “A (an enhancement ratio of greater than 1 and less than 10)” (3 μM test compound); “A (an enhancement ratio of greater than 1 and less than 10)” (10 μM test compound).
Regarding `Cc1nc2cccc(O[C@H]3CC[C@H](NC(=O)COCC(C)(C)C)CC3)c2c(N)c1C(=O)O` [Compound 301, 4-Amino-2-methyl-5-((trans-4-(2-(neopentyloxy)acetamido)cyclohexyl)oxy) quinoline-3-carboxylic acid], the “Sucrose Enhancement EC50 Ratio” value (1 μM test compound) was “B (an enhancement ratio from 10 to 20)”. In addition, under “3 μM test compound”, the “Sucralose Enhancement EC50 Ratio” value is “B (an enhancement ratio from 10 to 20)” and the “Sucrose Enhancement EC50 Ratio” value was “B (an enhancement ratio from 10 to 20)”.
For the compound `Cc1nc2cccc(O[C@H]3CC[C@H](N)CC3)c2c(N)c1C(=O)O.Cl` [Compound 302, 4-Amino-5-((trans-4-aminocyclohexyl)oxy)-2-methylquinoline-3-carboxylic acid (HCl salt)], the “Sucrose Enhancement EC50 Ratio” value reads like this: (1 μM test compound) “A (an enhancement ratio of greater than 1 and less than 10)”; (3 μM test compound) “A (an enhancement ratio of greater than 1 and less than 10)”.
In the case of `Cc1nc2cccc(O[C@H]3CC[C@H](NC(=O)CO)CC3)c2c(N)c1C(=O)O` [Compound 303], the “Sucrose Enhancement EC50 Ratio” value (1 μM test compound) is “A (an enhancement ratio of greater than 1 and less than 10)”; the “Sucrose Enhancement EC50 Ratio” value (3 μM test compound) is “A (an enhancement ratio of greater than 1 and less than 10)”; the “Sucrose Enhancement EC50 Ratio” value (10 μM test compound) is “B (an enhancement ratio from 10 to 20)”. Further, the “Sucralose Enhancement EC50 Ratio” value (10 μM test compound) is “A (an enhancement ratio of greater than 1 and less than 10)”.

The values are drawn from patent publication US11339128B2 (Firmenich Incorporated, priority 2014, dated 2022).
